Our source for the Ki values is patent US9221796B2, “Selective NR2B antagonists” (BRISTOL-MYERS SQUIBB COMPANY, priority 2014, dated 2015).

For the experiment, the target named is NR2B-subtype NMDA receptors (Rattus norvegicus (Rat), UniProt P35439+Q00960). In words: Radioligand binding assay (3H Ro 25-6981 competition, forebrain membranes). The settings on record: 3H Ro 25-6981 (4 nM), read-out: NR2B Binding Ki. As for the experimental part: Radioligand Binding Assay. […] Buchy D; Klingelschmidt A; Messer J; Bleuel Z; Kemp J A; Richards J G. […] Thawed brains were homogenized using a Dounce homogenizer and centrifuged at 48000×g for 20 min. The pellet was resuspended in cold buffer and homogenized again using a Dounce homogenizer. […] After incubation for 1 hr at room temperature, the membrane bound radioligand was harvested on to GF/B filter plates (treated with 0.5% PEI for 1 hr at room temperature). The filter plates were dried at 50° C. for 20 mins, incubated with microscint 20 for 10 minutes and finally, the counts were read on TopCount (Perkin Elmer). […] CPM values were converted to % inhibition and the concentration response curves were plotted using custom made software. Each experiment was repeated at least twice to obtain the final binding Ki values for experimental compounds.
NR2B-subtype NMDA receptors, sequence (Q00960 27-1482, other chains not shown): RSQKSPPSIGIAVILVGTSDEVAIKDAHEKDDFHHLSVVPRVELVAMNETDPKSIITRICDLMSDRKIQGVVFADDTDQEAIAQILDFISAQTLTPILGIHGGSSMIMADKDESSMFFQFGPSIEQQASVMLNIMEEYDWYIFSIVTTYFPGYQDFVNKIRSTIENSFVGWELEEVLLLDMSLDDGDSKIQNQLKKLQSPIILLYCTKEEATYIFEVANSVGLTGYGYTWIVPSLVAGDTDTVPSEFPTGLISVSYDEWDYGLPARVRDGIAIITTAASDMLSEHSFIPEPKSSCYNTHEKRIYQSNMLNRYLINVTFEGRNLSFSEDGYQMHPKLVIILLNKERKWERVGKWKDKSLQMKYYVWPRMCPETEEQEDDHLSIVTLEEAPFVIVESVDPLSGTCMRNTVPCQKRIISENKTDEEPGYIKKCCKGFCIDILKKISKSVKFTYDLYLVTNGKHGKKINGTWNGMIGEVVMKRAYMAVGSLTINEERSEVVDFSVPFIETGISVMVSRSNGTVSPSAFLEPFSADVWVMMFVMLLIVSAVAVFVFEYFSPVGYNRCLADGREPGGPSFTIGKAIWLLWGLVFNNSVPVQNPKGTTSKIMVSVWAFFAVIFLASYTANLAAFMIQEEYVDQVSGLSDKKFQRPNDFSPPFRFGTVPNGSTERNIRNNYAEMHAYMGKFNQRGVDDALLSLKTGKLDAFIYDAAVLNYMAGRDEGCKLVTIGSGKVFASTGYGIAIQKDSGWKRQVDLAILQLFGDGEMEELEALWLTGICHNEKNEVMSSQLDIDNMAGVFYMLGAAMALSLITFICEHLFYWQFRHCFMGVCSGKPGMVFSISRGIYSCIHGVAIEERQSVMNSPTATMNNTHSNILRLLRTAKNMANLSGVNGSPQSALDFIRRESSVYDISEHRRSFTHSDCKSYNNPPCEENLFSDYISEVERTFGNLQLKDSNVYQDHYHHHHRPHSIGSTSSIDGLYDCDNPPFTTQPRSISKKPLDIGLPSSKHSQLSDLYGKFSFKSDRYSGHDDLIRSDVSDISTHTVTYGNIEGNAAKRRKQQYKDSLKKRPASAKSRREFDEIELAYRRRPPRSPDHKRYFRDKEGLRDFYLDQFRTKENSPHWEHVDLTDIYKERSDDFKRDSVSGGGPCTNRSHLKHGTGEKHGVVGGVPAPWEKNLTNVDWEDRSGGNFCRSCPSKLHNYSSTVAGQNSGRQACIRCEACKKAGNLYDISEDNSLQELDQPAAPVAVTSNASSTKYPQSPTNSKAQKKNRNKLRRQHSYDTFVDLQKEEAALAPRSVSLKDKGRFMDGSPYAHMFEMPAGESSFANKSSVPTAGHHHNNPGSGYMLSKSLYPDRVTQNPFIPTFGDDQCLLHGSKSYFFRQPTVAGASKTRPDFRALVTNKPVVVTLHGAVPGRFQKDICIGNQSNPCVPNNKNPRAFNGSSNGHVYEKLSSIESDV
As for `O=C1C(N2CCC(c3ccc(O)cc3)C(F)(F)C2)CCN1Cc1ccc(Cl)c(Cl)c1` (stereo not drawn) [Example 109, 1-(3,4-Dichlorobenzyl)-3-(3,3-difluoro-4-(4-hydroxyphenyl)piperidin-1-yl)pyrrolidin-2-one], the Ki – broadly, a measure of affinity in units of concentration, obtained from inhibition or displacement – was found to be 0.29 µM.
`O=C1C(N2CCC(c3ccc(O)cc3)C(F)(F)C2)CCN1Cc1ccc(C(F)(F)F)cc1` (single isomer, unassigned) [Example 53, P-2, 3-(3,3-Difluoro-4-(4-hydroxyphenyl)piperidin-1-yl)-1-(4-(trifluoromethyl)-benzyl)pyrrolidin-2-one]: the Ki stood at 0.0058 µM.
Next, `O=C1[C@H](N2CC[C@@H](c3ccc(O)c(F)c3)[C@H](F)C2)CCN1Cc1ccc(Cl)cc1` [Example 116, (R)-1-(4-chlorobenzyl)-3-((3S,4S)-3-fluoro-4-(3-fluoro-4-hydroxyphenyl)piperidin-1-yl)pyrrolidin-2-one]: 0.002 µM; `C[C@@H](c1ccccc1)N1CC[C@@H](N2CCC(c3ccc(O)cc3)CC2)C1=O` [Example 33b, (R)-3-(4-(4-Hydroxyphenyl)piperidin-1-yl)-1-((S)-1-phenylethyl)pyrrolidin-2-one]: 0.044 µM.
Next, `Cc1ccc(CN2CCCC(N3CCC(c4ccc(O)cc4)CC3)C2=O)cc1` (stereo not drawn) [Example 38, 4-(4-Hydroxyphenyl)-1′-(4-methylbenzyl)-[1,3′-bipiperidin]-2′-one]: 0.15 µM; `O=C1C(N2CCC(c3ccc(O)cc3)CC2)CCN1Cc1ccc(Cl)cc1` (racemic) [Example 17, 1-(4-Chlorobenzyl)-3-(4-(4-hydroxyphenyl)piperidin-1-yl)pyrrolidin-2-one]: 0.0016 µM; `Cc1cccc(CN2CCC(N3CC[C@@H](c4ccc(O)cc4)[C@H](F)C3)C2=O)c1` (stereo partly drawn) [Example 60, 3-((3S,4S)-3-Fluoro-4-(4-hydroxyphenyl)piperidin-1-yl)-1-(3-methylbenzyl)pyrrolidin-2-one]: 0.11 µM.
The same measure for `Cc1cc(O)ccc1C1CCN(C2CCN(Cc3ccccc3)C2=O)CC1` (stereo not drawn) [Example 29, 1-Benzyl-3-(4-(4-hydroxy-2-methylphenyl)piperidin-1-yl)pyrrolidin-2-one]: 0.078 µM; for `O=C1C(N2CCC(c3ccc(O)cc3)C(O)C2)CCN1Cc1ccc(F)cc1` (single isomer, unassigned) [Example 9b, 1-(4-Fluorobenzyl)-3-(3-hydroxy-4-(4-hydroxyphenyl)-piperidin-1-yl)pyrrolidin-2-one]: 1.4 µM.
In the case of `O=C1C(N2CCC(c3ccc(O)cc3)C(F)(F)C2)CCN1Cc1ccc(Cl)c(Cl)c1` (stereo not drawn) [Example 98, 1-(3,4-Dichlorobenzyl)-3-(3,3-difluoro-4-(4-hydroxyphenyl)piperidin-1-yl)pyrrolidin-2-one], the Ki was 0.23 µM.
For the molecule `O=C1C(N2CCC(c3ccc(O)cc3)C(O)C2)CCN1Cc1ccc(F)cc1` (single isomer, unassigned) [Example 9c, 1-(4-Fluorobenzyl)-3-(3-hydroxy-4-(4-hydroxyphenyl)-piperidin-1-yl)pyrrolidin-2-one], the Ki is 5 µM.
Next, `O=C1[C@H](N2CC[C@H](c3ccc(O)cc3)[C@@H](F)C2)CCN1Cc1ccc(F)cc1` [Example 48, P-4]: 0.013 µM.
The same measure for `O=C1C(N2CCC(c3ccc(O)cc3)CC2)CCN1Cc1ccccc1` (stereo not drawn) [Example 12, 1-Benzyl-3-(4-(4-hydroxyphenyl)piperidin-1-yl)pyrrolidin-2-one]: 0.004 µM.
Next, `O=C1[C@@H](N2CC[C@H](c3ccc(O)cc3)[C@@H](F)C2)CCN1Cc1ccc(F)cc1` [Example 48, P-2]: 1.7 µM; `O=C1[C@H](N2CC[C@@H](c3ccc(O)cc3)[C@H](F)C2)CCN1Cc1ccccc1` [Example 58, (R)-1-Benzyl-3-((3S,4S)-3-fluoro-4-(4-hydroxyphenyl)piperidin-1-yl)pyrrolidin-2-one]: 0.0087 µM.
As for `O=C1C(N2CCC(c3ccc(O)cc3)CC2)CCN1Cc1ccc(OC(F)F)cc1` (stereo not drawn) [Example 7, 1-(4-(Difluoromethoxy)benzyl)-3-(4-(4-hydroxyphenyl)piperidin-1-yl)pyrrolidin-2-one], the inhibition constant (Ki) is 0.037 µM.
The same measure for `O=C1[C@H](N2CC[C@@H](c3ccc(O)c(F)c3)[C@H](F)C2)CCN1Cc1ccc(C(F)F)cc1` [Example 117, P-2, (R)-1-(4-(difluoromethyl)benzyl)-3-((3S,4S)-3-fluoro-4-(3-fluoro-4-hydroxyphenyl)piperidin-1-yl)pyrrolidin-2-one]: 0.0029 µM; for `O=C1C(N2CCC(c3ccc(O)cc3)C(F)(F)C2)CCN1Cc1ccc(C(F)(F)F)cc1` (single isomer, unassigned) [Example 53, P-1, 3-(3,3-Difluoro-4-(4-hydroxyphenyl)piperidin-1-yl)-1-(4-(trifluoromethyl)-benzyl)pyrrolidin-2-one]: 1.1 µM; for `O=C1[C@@H](N2CCC(c3ccc(O)cc3)CC2)CCN1Cc1ccccc1` [Example 13a, (S)-1-Benzyl-3-(4-(4-hydroxyphenyl)piperidin-1-yl)pyrrolidin-2-one]: 0.041 µM.
In the case of `O=C1[C@@H](N2CC[C@@H](c3ccc(O)cc3)[C@H](F)C2)CCN1Cc1ccc(Cl)c(F)c1` [Example 66, (S)-1-(4-Chloro-3-fluorobenzyl)-3-((3S,4S)-3-fluoro-4-(4-hydroxyphenyl)piperidin-1-yl)pyrrolidin-2-one], the inhibitory constant (Ki) amounted to 1.5 µM.
The same measure for `O=C1C(N2CCCCC(c3ccc(O)cc3)C2)CCN1Cc1ccc(F)cc1` (stereo not drawn) [Example 31, 1-(4-Fluorobenzyl)-3-(3-(4-hydroxyphenyl)azepan-1-yl)pyrrolidin-2-one]: 0.8 µM; for `O=C1[C@H](N2CC[C@@H](c3ccc(O)cc3)[C@H](F)C2)CCN1Cc1ccc(Cl)cc1` [Example 65, (R)-1-(4-Chlorobenzyl)-3-((3S,4S)-3-fluoro-4-(4-hydroxyphenyl)piperidin-1-yl)pyrrolidin-2-one]: 0.0036 µM; for `O=C1[C@@H](N2CCC(c3ccc(O)cc3)CC2)CCN1Cc1ccc(Cl)cc1` [Example 18a, (S)-1-(4-Chlorobenzyl)-3-(4-(4-hydroxyphenyl)piperidin-1-yl)pyrrolidin-2-one]: 0.17 µM.
The same measure for `O=C1C(N2CC[C@H](c3ccc(O)cc3)[C@@H](F)C2)CCN1c1ccc(OC(F)F)c(Cl)c1` (stereo partly drawn) [Example 79, 1-(3-Chloro-4-(difluoromethoxy)phenyl)-3-((3R,4R)-3-fluoro-4-(4-hydroxyphenyl)-piperidin-1-yl)pyrrolidin-2-one]: 0.04 µM; for `Cc1ccc(N2CC[C@H](N3CC[C@H](c4ccc(O)cc4)[C@@H](F)C3)C2=O)cc1F` [Example 49, P-1, (S)-3-((3R,4R)-3-fluoro-4-(4-hydroxyphenyl)piperidin-1-yl)-1-(3-fluoro-4-methylphenyl)pyrrolidin-2-one]: 0.42 µM; for `O=C1[C@@H](N2CCC(c3ccc(O)cc3)C(F)(F)C2)CCN1Cc1ccc(Cl)cc1` (stereo partly drawn) [Example 95, P-1, (3S)-1-(4-Chlorobenzyl)-3-(3,3-difluoro-4-(4-hydroxyphenyl)piperidin-1-yl)pyrrolidin-2-one]: 0.054 µM.
Next, `O=C1[C@@H](N2CCC(c3ccc(O)cc3)C(F)(F)C2)CCN1Cc1ccc(Cl)c(F)c1` (single isomer, unassigned) [Example 107, P-1]: 1.2 µM.
